Key:
SKBR3 cells = assay: SKBR3 Cell Viability Assay (CellTiter Glo); type: cell-based; conditions: Homo sapiens, SK-BR-3, 72 h, CellTiter Glo luminescence, read-out: MCL-1 CV SKBR3 EC50
How it was run: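 SKBR3 cells (6,000/well) in McCoy 5A + 10% FBS exposed to serially diluted compound for 72 h at 37° C., 5% CO2. Viability by CellTiter Glo luminescence; % inhibition normalized to DMSO (negative) and 10 μM puromycin (positive).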

[1] = target: MCL-1/Bim interaction (recombinant human MCL-1 protein, residues 171-327; biotinylated human Bim peptide, residues 51-76) (Homo sapiens (Human), UniProt Q07820); assay: MCL-1/Bim Binding AlphaLISA Assay; conditions: 0.0625 nM 6xHis-Mcl-1 (171-327), 0.0625 nM biotinylated-Bim peptide
Sequence of MCL-1/Bim interaction (recombinant human MCL-1 protein, residues 171-327; biotinylated human Bim peptide, residues 51-76) (Q07820 171-327): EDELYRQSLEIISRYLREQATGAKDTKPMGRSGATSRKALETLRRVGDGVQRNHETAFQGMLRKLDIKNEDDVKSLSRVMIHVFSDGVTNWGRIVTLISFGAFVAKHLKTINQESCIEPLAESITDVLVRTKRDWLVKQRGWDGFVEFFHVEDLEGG
How it was run: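 AlphaLISA with 0.0625 nM His-tagged MCL-1 (171-327) and 0.0625 nM biotinylated Bim (51-76) in 20 mM Hepes pH 7.5, 150 mM NaCl, 0.002% Brij 35, 1 mM DTT, 0.01% BSA. Compound preincubated 1 h with MCL-1, then Bim 2 h, acceptor beads 1 h, donor beads 1 h; percent inhibition against DMSO and no-protein/no-peptide controls.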

| SMILES | EC50 (SKBR3 cells) [nM] | IC50 [1] [nM] |
| --- | --- | --- |
| CO[C@H]1/C=C/C[C@H](C)C[S@@](=O)(NC(=O)c2cn(C)nc2N(C)C)=NC(=O)c2ccc3c(c2)N(C[C@@H]2CC[C@H]21)C[C@@]1(CCCc2cc(Cl)ccc21)CO3 [Example 213] | 57 | 0.076 |
| COC[C@H]1Cn2cc(C(=O)N[S@@]3(=O)=NC(=O)c4ccc5c(c4)N(C[C@@H]4CC[C@H]4[C@@H](OC)/C=C/C[C@H](C)C3)C[C@@]3(CCCc4cc(Cl)ccc43)CO5)cc2CO1 [Example 214] | 55.9 | 0.185 |
| CO[C@H]1/C=C/C[C@H](C)C[S@@](=O)(NC(=O)NC2CC3(COC3)C2)=NC(=O)c2ccc3c(c2)N(C[C@@H]2CC[C@H]21)C[C@@]1(CCCc2cc(Cl)ccc21)CO3 [Example 217] | 83.2 | 0.065 |
| CO[C@H]1/C=C/C[C@H](C)[C@@H](C)[S@@](=O)(NC(=O)c2cc3n(c2)C[C@H](C)OC3)=NC(=O)c2ccc3c(c2)N(C[C@@H]2CC[C@H]21)C[C@@]1(CCCc2cc(Cl)ccc21)CO3 [Example 218] | 85.5 | 0.345 |
| CO[C@H]1/C=C/C[C@H](C)C[S@@](=O)(NC(=O)c2cc3n(n2)CCO3)=NC(=O)c2ccc3c(c2)N(C[C@@H]2CC[C@H]21)C[C@@]1(CCCc2cc(Cl)ccc21)CO3 [Example 219] | 146 | 0.099 |
| CC[C@H]1C/C=C/[C@H](OC)[C@@H]2CC[C@H]2CN2C[C@@]3(CCCc4cc(Cl)ccc43)COc3ccc(cc32)C(=O)N=[S@](=O)(NC(=O)c2cn(C)nc2OC)C1 [Example 220] | 97.8 | 0.122 |
| CO[C@H]1/C=C/C[C@H](C)C[S@@](=O)(NC(=O)c2cn(C)nc2OCC2CC2)=NC(=O)c2ccc3c(c2)N(C[C@@H]2CC[C@H]21)C[C@@]1(CCCc2cc(Cl)ccc21)CO3 [Example 221] | 104 | 0.046 |
| CO[C@H]1/C=C/C[C@H](C)C[S@@](=O)(NC(=O)N[C@@H]2CC[C@@H](O)C2)=NC(=O)c2ccc3c(c2)N(C[C@@H]2CC[C@H]21)C[C@@]1(CCCc2cc(Cl)ccc21)CO3 [Example 222] | 80.1 | 0.044 |
| COc1nn(C)cc1C(=O)N[S@@]1(=O)=NC(=O)c2ccc3c(c2)N(C[C@@H]2CC[C@H]2[C@@H](O)/C=C/C[C@H](C)C1)C[C@@]1(CCCc2cc(Cl)ccc21)CO3 [Example 223] | 37.3 | 0.039 |
| COc1c(C(=O)N[S@@]2(=O)=NC(=O)c3ccc4c(c3)N(C[C@@H]3CC[C@H]3[C@@H](OC)/C=C/C[C@H](C)C2)C[C@@]2(CCCc3cc(Cl)ccc32)CO4)cn2c1C[C@@H](OC)C2 [Example 224] | 83.5 | 0.195 |
| CCO[C@]1(C)C[C@H](NC(=O)N[S@@]2(=O)=NC(=O)c3ccc4c(c3)N(C[C@@H]3CC[C@H]3[C@@H](OC)/C=C/C[C@H](C)C2)C[C@@]2(CCCc3cc(Cl)ccc32)CO4)C1 [Example 225] | 51.3 | 0.043 |
| CCN(CC)C(=O)OC1CN(C(=O)N[S@@]2(=O)=NC(=O)c3ccc4c(c3)N(C[C@@H]3CC[C@H]3[C@@H](OC)/C=C/C[C@H](C)C2)C[C@@]2(CCCc3cc(Cl)ccc32)CO4)C1 [Example 226] | 71.3 | 0.095 |
| CO[C@H]1/C=C/[C@H](OC)[C@H](C)C[S@@](=O)(NC(=O)N[C@H]2CC2C(F)F)=NC(=O)c2ccc3c(c2)N(C[C@@H]2CC[C@H]21)C[C@@]1(CCCc2cc(Cl)ccc21)CO3 (some centres unmarked) [Example 227] | 21.3 | 0.076 |
| COc1nn(C)cc1C(=O)N[S@@]1(=O)=NC(=O)c2ccc3c(c2)N(C[C@@H]2CC[C@H]2[C@@H](OC)/C=C\C[C@H](C)C1)C[C@@]1(CCCc2cc(Cl)ccc21)CO3 [Example 228] | 69.9 | 0.069 |
| CO[C@H]1/C=C/C[C@H](C)C[S@@](=O)(NC(=O)N2CC3(CCO3)C2)=NC(=O)c2ccc3c(c2)N(C[C@@H]2CC[C@H]21)C[C@@]1(CCCc2cc(Cl)ccc21)CO3 [Example 230] | 47.1 | 0.027 |
| CO[C@H]1/C=C/C[C@H](C)C[S@@](=O)(NC(=O)N2CC3(CCCO3)C2)=NC(=O)c2ccc3c(c2)N(C[C@@H]2CC[C@H]21)C[C@@]1(CCCc2cc(Cl)ccc21)CO3 [Example 231] | 40 | 0.051 |
| COC[C@@H]1CN(C(=O)N[S@@]2(=O)=NC(=O)c3ccc4c(c3)N(C[C@@H]3CC[C@H]3[C@@H](OC)/C=C/C[C@H](C)C2)C[C@@]2(CCCc3cc(Cl)ccc32)CO4)CCO1 [Example 232] | 243 | 0.052 |
| CO[C@H]1/C=C/C[C@H](C)C[S@@](=O)(NC(=O)N2CC(C#N)C2)=NC(=O)c2ccc3c(c2)N(C[C@@H]2CC[C@H]21)C[C@@]1(CCCc2cc(Cl)ccc21)CO3 [Example 233] | 47.2 | 0.016 |
| COCCOC1CCN(C(=O)N[S@@]2(=O)=NC(=O)c3ccc4c(c3)N(C[C@@H]3CC[C@H]3[C@@H](OC)/C=C/C[C@H](C)C2)C[C@@]2(CCCc3cc(Cl)ccc32)CO4)CC1 [Example 234] | 73.9 | 0.053 |

| SMILES | EC50 (SKBR3 cells) [nM] | IC50 [1] [nM] |
| --- | --- | --- |
| CCOC1CN(C(=O)N[S@@]2(=O)=NC(=O)c3ccc4c(c3)N(C[C@@H]3CC[C@H]3[C@@H](OC)/C=C/C[C@H](C)C2)C[C@@]2(CCCc3cc(Cl)ccc32)CO4)C1 [Example 235] | 39.8 | 0.035 |
| CO[C@H]1/C=C/C[C@H](C)C[S@@](=O)(NC(=O)N2C3COCC2C3)=NC(=O)c2ccc3c(c2)N(C[C@@H]2CC[C@H]21)C[C@@]1(CCCc2cc(Cl)ccc21)CO3 [Example 236] | 152 | 0.055 |
| CO[C@H]1/C=C/C[C@H](C)C[S@@](=O)(NC(=O)N2CC(C(C)(C)O)C2)=NC(=O)c2ccc3c(c2)N(C[C@@H]2CC[C@H]21)C[C@@]1(CCCc2cc(Cl)ccc21)CO3 [Example 237] | 121 | 0.044 |
| CO[C@H]1/C=C/C[C@H](C)C[S@@](=O)(NC(=O)c2cc(CN3CCN4CCOC[C@@H]4C3)n(C)c2)=NC(=O)c2ccc3c(c2)N(C[C@@H]2CC[C@H]21)C[C@@]1(CCCc2cc(Cl)ccc21)CO3 [Example 238] | 23.4 | 0.033 |
| COc1nn(C)cc1C(=O)N[S@@]1(=O)=NC(=O)c2ccc3c(c2)N(C[C@@H]2CC[C@H]2[C@@H](OC)CCC[C@H](C)C1)C[C@@]1(CCCc2cc(Cl)ccc21)CO3 [Example 240] | 91.5 | 0.018 |
| CCC1CN(C(=O)N[S@@]2(=O)=NC(=O)c3ccc4c(c3)N(C[C@@H]3CC[C@H]3[C@@H](OC)/C=C/C[C@H](C)C2)C[C@@]2(CCCc3cc(Cl)ccc32)CO4)C1 [Example 242] | 84 | 0.074 |
| CO[C@H]1/C=C/C[C@H](C)C[S@@](=O)(NC(=O)N[C@H]2C[C@@H]2C(F)(F)F)=NC(=O)c2ccc3c(c2)N(C[C@@H]2CC[C@H]21)C[C@@]1(CCCc2cc(Cl)ccc21)CO3 [Example 243] | 41.7 | 0.059 |
| COC1CN(C(=O)N[S@@]2(=O)=NC(=O)c3ccc4c(c3)N(C[C@@H]3CC[C@H]3[C@@H](OC)CCC[C@H](C)C2)C[C@@]2(CCCc3cc(Cl)ccc32)CO4)C1 [Example 244] | 116 | 0.032 |
| COC(=O)N1CCN(C(=O)N[S@@]2(=O)=NC(=O)c3ccc4c(c3)N(C[C@@H]3CC[C@H]3[C@@H](OC)/C=C/C[C@H](C)C2)C[C@@]2(CCCc3cc(Cl)ccc32)CO4)CC1 [Example 245] | 60.7 | 0.066 |
| CO[C@H]1/C=C/C[C@H](C)C[S@@](=O)(NC(=O)N2CC(OC)(C(F)(F)F)C2)=NC(=O)c2ccc3c(c2)N(C[C@@H]2CC[C@H]21)C[C@@]1(CCCc2cc(Cl)ccc21)CO3 [Example 246] | 176 | 0.096 |
| CO[C@H]1/C=C/C[C@H](C)C[S@@](=O)(NC(=O)N2CCN(C(C)=O)CC2)=NC(=O)c2ccc3c(c2)N(C[C@@H]2CC[C@H]21)C[C@@]1(CCCc2cc(Cl)ccc21)CO3 [Example 247] | 85 | 0.042 |
| CO[C@H]1/C=C/C[C@H](C)C[S@@](=O)(NC(=O)N2CC3(COCCO3)C2)=NC(=O)c2ccc3c(c2)N(C[C@@H]2CC[C@H]21)C[C@@]1(CCCc2cc(Cl)ccc21)CO3 [Example 248] | 55.3 | 0.042 |
| COc1nn(C)cc1C(=O)N[S@@]1(=O)=NC(=O)c2ccc3c(c2)N(C[C@@H]2CC[C@H]2[C@@H](OC(C)=O)/C=C/C[C@H](C)[C@H]1C)C[C@@]1(CCCc2cc(Cl)ccc21)CO3 [Example 249] | 222 | 0.14 |
| CO[C@H]1/C=C/C[C@H](C)C[S@@](=O)(NC(=O)N2C[C@H](OC)[C@H]2C)=NC(=O)c2ccc3c(c2)N(C[C@@H]2CC[C@H]21)C[C@@]1(CCCc2cc(Cl)ccc21)CO3 [Example 250] | 44.4 | 0.029 |
| COCCOC1CN(C(=O)N[S@@]2(=O)=NC(=O)c3ccc4c(c3)N(C[C@@H]3CC[C@H]3[C@@H](OC)/C=C/C[C@H](C)C2)C[C@@]2(CCCc3cc(Cl)ccc32)CO4)C1 [Example 251] | 39.6 | 0.037 |
| COc1nn(C(F)F)cc1C(=O)N[S@@]1(=O)=NC(=O)c2ccc3c(c2)N(C[C@@H]2CC[C@H]2[C@@H](OC)/C=C/C[C@H](C)C1)C[C@@]1(CCCc2cc(Cl)ccc21)CO3 [Example 252] | 82.7 | 0.043 |
| CO[C@H]1/C=C/C[C@H](C)C[S@@](=O)(NC(=O)N2C[C@@H](OC)[C@@H]2C)=NC(=O)c2ccc3c(c2)N(C[C@@H]2CC[C@H]21)C[C@@]1(CCCc2cc(Cl)ccc21)CO3 [Example 253] | 39.2 | 0.037 |
| COc1nn(C)cc1C(=O)N[S@@]1(=O)=NC(=O)c2ccc3c(c2)N(C[C@@H]2CC[C@H]2[C@@H](OC(=O)[C@@H](N)C(C)C)/C=C/C[C@H](C)[C@H]1C)C[C@@]1(CCCc2cc(Cl)ccc21)CO3 [Example 254] | 155 | 0.126 |
